The values below come from patent publication US7973219B2, “Method for producing transgenic plants resistant to weed control compounds which disrupt the porphyrin pathways of plants” (Sumitomo Chemical Company, Limited, priority 1998, dated 2011).

Read-outs that look alike come from different tables or passages of the source.

Test [1] relates to control recombinant tobacco. The test can be described thus: Leaf piece chlorophyll test, control recombinant tobacco. It is filed as in vivo. To be noted: Nicotiana tabacum, read-out: Resistant level to test compound; for activity at 0.3 ppm: 0.30 ppm. On the procedure: (§1) Then, according to the method described in Manual for Gene Manipulation of Plant (by Hirofumi UCHIMIYA, Kodan-sha Scientific, 1992), the gene was introduced into tobacco. Agrobacterium strain bearing plasmid pBIBCH was cultured at 28° C. overnight in LB medium and then leaf pieces of tobacco cultured sterilely were dipped in the liquid culture medium. The leaf pieces were cultured at room temperature for 2 days in Murashige-Skoog medium (MS-medium, described in Murasige T. and Skoog F., Physiol. Plant. (1962) 15, p 473) containing 0.8% agar, 0.1 mg/liter naphthalene acetic acid and 1.0 mg/liter benzyl aminopurine. Then, the leaf pieces were washed with sterilized water and cultured for 7 days on MS medium containing 0.8% agar, 0.1 mg/liter naphthalene acetic acid, 1.0 mg/liter benzyl aminopurine and 500 μg/ml cefotaxime. The leaf pieces were transplanted onto MS medium containing 0.8% agar, 0.1 mg/liter naphthalene acetic acid, 1.0 mg/liter benzyl aminopurine, 500 μg/ml cefotaxime and 100 μg/ml kanamycin (hereinafter referred to as selective MS medium) and cultured on the medium continuously for 4months with transplanting the tobacco leaf pieces onto fresh selective MS medium every 1 month. During culture, stem-leaf differentiated shoots were appeared from the tobacco leaf pieces, these shoots were transplanted to MS medium containing 0.8% agar, 300 μg/ml cefotaxime and 50 μg/ml kanamycin to induce roots to obtain regenerated plants. The resultant regenerated plant was transplanted and cultured on MS medium 0.8% agar and 50 μg/ml kanamycin to obtain tobacco plant into which bchH gene was introduced. Similarly, tobacco leaf pieces were infected with Agrobacterium strain bearing pNO to obtain regenerated plant from the tobacco leaf pieces and tobacco plant (hereinafter referred to as control recombinant tobacco).
(§2) The tobacco leaves into which bchH gene was introduced and control recombinant tobacco leaves obtained in Example 5 were collected and each leaf was divided into the right and left equivalent pieces along the main vein, respectively. To one piece was applied an aqueous solution containing 0.3 ppm PPO inhibitory-type herbicidal compound of Structure 8, while, to the other piece was not applied the compound. These leaf pieces were placed on MS medium containing 0.8% agar and allowed to stand at room temperature for 7 days in light place. Then, each leaf piece was ground with pestle and mortar in 5 ml of 80% aqueous acetone solution to extract chlorophyll. The extract liquid was diluted with 80% aqueous acetone solution and the absorbance was measured at 750 nm, 663 nm and 645 nm to calculate total chlorophyll content according to the method described by Macknney G., J. Biol. Chem. (1941) 140, p 315. The results obtained from 4 clones of tobacco into which bchH gene was introduced (BCH1 to 4) and control recombinant tobacco is shown in Table 4. In the table, the resistant level to the herbicidal compound was represented by percentages of the total chlorophyll content of leaf pieces treated with herbicidal compound to that of untreated leaf pieces.
(§3) The tobacco clone into which bchH gene was introduced and control recombinant tobacco were also treated in the same manner with the solution containing PPO inhibitory-type herbicidal compound represented by the above Structure 3, 7, 10, 11, 13, 17, 23, 24, 25, 27, 28, 30 or 35, and the resistant level to each herbicidal compound was measured. In the table, the resistant levels to the herbicidal compound were represented by percentages of the total chlorophyll content of leaf pieces treated with the herbicidal compound to that of untreated leaf pieces.
The level of resistance to PPO inhibitory type herbicidal compound represented by Structure 8 was confirmed quantitatively by testing tobacco into which the gene encoding the variant soybean PPO prepared in Example 13 was introduced according to the same manner as in Example 6. […]

The subject of test [2] is tobacco into which bchH gene was introduced. Briefly: Leaf piece chlorophyll test, tobacco into which bchH gene was introduced. It is filed as in vivo. To be noted: Nicotiana tabacum, read-out: Resistant level to test compound; for activity at 0.3 ppm: 0.30 ppm. On the procedure:
as §1, §2, §3

Where [3] appears, read: control recombinant tobacco, treated vs untreated leaf pieces, Table 5.
The mark [4] stands for this setting: bchH recombinant tobacco, treated vs untreated leaf pieces, Table 5.

Regarding `C#CCN1C(=O)COc2cc(F)c(-n3c(=O)cc(C(F)(F)F)n(C)c3=O)cc21` [Structure 17], the activity at 0.3 ppm was 14.3% in test [1] (setting [3]) and 80.4% in test [2] (setting [4]).

Take `CCCCCOC(=O)COc1cc(N2C(=O)C3=C(CCCC3)C2=O)c(F)cc1Cl` [Structure 10]: the activity at 10 ppm in test [1] (setting [3]) stood at 14.9%; in test [2] (setting [4]), 84%.

Regarding `C#CCOc1cc(-n2nc3n(c2=O)CCCC3)c(Cl)cc1Cl` [Structure 23], the activity at 3 ppm in test [1] (control recombinant tobacco, 3.0 ppm, treated vs untreated leaf pieces, Table 5) is 5.58%; in test [2] (bchH recombinant tobacco, 3.0 ppm, treated vs untreated leaf pieces, Table 5), 106%.

Take `CCOC(=O)COc1cc(-n2ncc(C(F)(F)F)c(C)c2=O)c(F)cc1Cl` [Structure 27]: the activity at 10 ppm in test [1] (setting [3]) was determined as 16.8%; in test [2] (setting [4]) it was 86.8%.

`CCOC(=O)C(C)OC(=O)c1cc(Oc2ccc(C(F)(F)F)cc2Cl)ccc1[N+](=O)[O-]` (stereo not drawn) [Structure 3]: the activity at 10 ppm in test [1] (setting [3]) stood at 9.94%; in test [2] (setting [4]), 114%.

In the case of `C#CCOc1cc(-n2ncc(C(F)(F)F)c(C)c2=O)c(F)cc1Cl` [Structure 28], the activity at 0.3 ppm in test [1] (setting [3]) was 8.79%; in test [2] (setting [4]), 72.2%.

Take `C#CCN1C(=O)COc2cc(F)c(N3C(=O)C4=C(CCCC4)C3=O)cc21` [Structure 11]: the activity at 0.3 ppm in test [1] (setting [3]) was determined as 5.51%; in test [2] (setting [4]), 78.1%.

For the compound `O=[N+]([O-])c1ccc(Oc2c(Cl)cc(Cl)cc2Cl)cc1` [Structure 7], the activity at 30 ppm in test [1] (control recombinant tobacco, 30 ppm, treated vs untreated leaf pieces, Table 5) is 8.62%; in test [2] (bchH recombinant tobacco, 30 ppm, treated vs untreated leaf pieces, Table 5), 89.3%.

With `CC(C)Oc1cc(-n2nc(C(C)(C)C)oc2=O)c(Cl)cc1Cl` [Structure 25], the activity at 10 ppm came out at 16% in test [1] (setting [3]) and 104% in test [2] (setting [4]).

Consider `C#CCOc1cc(-n2nc(C(C)(C)C)oc2=O)c(Cl)cc1Cl` [Structure 24], for which the activity at 10 ppm was determined as 5.18% in test [1] (setting [3]) and 129% in test [2] (setting [4]).

`CCOC(=O)COc1cc(-c2nn(C)c(OC(F)F)c2Cl)c(F)cc1Cl` [Structure 30]: the activity at 3 ppm amounted to 4.24% in test [1] and 102% in test [2].

As to `C#CCN1C(=O)COc2cc(F)c(-c3cnc(C(F)(F)F)n(C)c3=O)cc21` [Structure 35], the values for the activity at 0.3 ppm in test [1] (setting [3]) and in test [2] (setting [4]) were 17.4% and 83.3%, respectively.
